Like-named read-outs stand apart in the source and are kept apart here.
Legend:
RSV-A2-GFP = RSV-A2-GFP viral replication assay; format: cell-based, Human Respiratory Syncytial Virus
Excerpt: GFP sequence was derived from pJTI™ R4 Dest CMV N-EmGFP pA Vector (Invitrogen) and was cloned into the intergenic sequence between wild-type RSV-A2 P and M genes using standard recombineering techniques. Recombinant RSV-A2-GFP was propagated in Hep2 cells (human cells contains HeLa marker chromosomes and were derived via HeLa contamination, ATCC CCL-23) with infection Multiplicity of Infection (MOI) of 0.1. Virus was harvested 3 days after infection by collecting all culture material and freeze-thaw the viral culture in liquid nitrogen for at least 5 times. To generating virus working stocks, thaw frozen samples in 37° C. water bath then centrifuge at 218 g for 15 min at 4° C. Add 1/10 of 10×SPG (Biological Industries 06-3061-01-5A), mix, aliquot supernatant, and quick-freeze in liquid nitrogen then transfer to −80° C. freezer for storage. Virus titer was determined by automated plaque assay in HEp-2 cells following methods described previously (Wen Z. et al.; J Virol Methods. 2019 January; 263:88-95).
Calu-1 cells (human lung epidermoid carcinoma, ATCC HTB-54) assay ready freezedown (ARF generation described separately) were used in assays. Compound plates were prepared by dispensing compounds dissolved in DMSO into wells of 384 well coming 3985 polystyrene flat clear bottom optical imaging microplates (202.5 nL/well) using an ECHO acoustic dispenser. Each compound was tested in a 10-point serial 3-fold dilution (typical final concentrations: 403 nM-0.02 nM and 40.3 nM-0.002 nM). […] To set up the assay, thaw ARF vial(s) in 37° C. water bath until small ice crystal remain and resuspend into assay media (DMEM containing 2% FBS, 100 U/ml Penicillin-Streptomycin). Count cells using default parameters on ViCell and dilute to 20,000 cells per ml in assay media. Add RSV GFP to cells at 24,000 pfu/ml (MOI=1.2). Mix by gentle inversion. 10 μl/well of 100% DMSO was dispensed to CellTiter-Glo (CTG) assay Max_E controls wells. Dispense cells at 50 μl/well using Bravo and 50 μl filtered tips into compound plates. Cover plates with MicroClime lids loaded with 7.5 ml of assay media to minimize evaporation. Incubate at 37 degrees C. and 5% CO2 for 96 hrs. Following incubation, distinct, GFP-expressing cells are counted using an Acumen imaging system with appropriate settings. A same-well CTG assay is performed by adding 10 μl/well reconstituted CellTiter-Glo reagent (Promega G7573) and reading plates on PerkinElmer Envision according to manufacturer's instructions. Raw data were loaded and analyzed in ActivityBase. Antiviral IC50 and cytotoxicity CC50 values were determined using a 4 parameter logistic fit based on the Levenberg-Marquardt algorithm. Model: 205-4 Parameter Logistic.
Calu-1 cells were purchased from ATCC (Cat #HTB-54) and are expanded in growth media (DMEM containing 10% FBS, 100 U/ml Penicillin-Streptomycin). To make ARF, remove and discard cell culture media, briefly rinse the cell layer with PBS to remove all traces of serum. Add 2.5 ml of TrypLE Express solution and incubate until cells dislodge, then add growth media and resuspend the cells by gentle pipetting. Count cells for concentration and determine viability using a ViCell. Centrifuge at RT, 300 g for 5 min to pellet cells. Gently aspirate supernatant, flick pellet to loosen cells. Resuspend cells in an appropriate volume of freezing medium (DMEM containing 10% DMSO, 10% FBS, 100 U/ml Penicillin-Streptomycin) to achieve 5×10^6/ml. Transfer 1 ml of cell suspension to freezing vials. Put vials to CoolCell cryopreservation container and place CoolCell container upright in a −80° C. freezer overnight before transferring vials to liquid nitrogen vapor for storage.

hMPV-GFP = hMPV-GFP viral replication assay; format: cell-based, human metapneumovirus; conditions: read-out: hMPV EC50
Experimental: GFP expressing rgHMPV #3 p3 was generated in Dr. Buchholz's lab (Biacchesi S. et al., J Virol. 2007 June; 81(11): 6057-6067.) and propagated in VERO cells (kidney tissue derived from a normal, adult African green monkey. ATCC Cat #CCL-81) with infection Multiplicity of Infection (MOI) of 0.1. Virus was harvested 4 days after infection by collecting all culture material and freeze-thaw the viral culture in liquid nitrogen twice. To generating virus working stocks, thaw frozen samples in 37° C. water bath then centrifuge at 218 g for 15 min at 4° C. Add 1/10 of 10×SPG (Biological Industries 06-3061-01-5A), mix, aliquot supernatant, and quick-freeze in liquid nitrogen then transfer to −80° C. freezer for storage. Virus titer was determined by performing titration test in 96-well plates and calculate approximate virus titer using GFP event/well data.
Compound plates were prepared by dispensing compounds dissolved in DMSO into wells of 384 well coming 3985 polystyrene flat clear bottom optical imaging microplates (202.5 nL/well) using an ECHO acoustic dispenser. Each compound was tested in a 10-point serial 3-fold dilution (typical final concentrations: 40,300 nM-2 nM). […] Continuous culture of VERO cells were maintained in complete culture media (OptiMEM supplemented with 2 mM GlutaMAX™ and 100 U/ml Penicillin-Streptomycin). To set up the assay, trypsinize VERO cells with 0.25% Trypsin-EDTA until cells dislodge, then re-suspend cells with 1 mL FBS. Spin down cells at 300 g for 5 min and wash cells twice in culture media, then count cells using default parameters on ViCell. Cells were then diluted to 100,000 cells/ml (5,000 cells/50 μl) in complete culture media+TrypLE Select (80 μl/ml). Add hMPV-GFP virus to cells at 125,000 pfu/ml (MOI=1.25). Mix by gentle inversion. 10 μl/well of 100% DMSO was dispensed to CellTiter-Glo (CTG) assay Max_E controls wells. Dispense cells at 50 μl/well using Bravo and 50 μl filtered tips into compound plates. Cover plates with MicroClime lids loaded with 7.5 ml of assay media to minimize evaporation. Lightly shake plate for 10 minutes at room temperature then incubate at 37 degrees C. and 5% CO2 for 48 hrs. Following incubation, distinct, GFP-expressing cells are counted using an Acumen imaging system with appropriate settings. A same-well CTG assay is performed by adding 10 μl/well reconstituted CellTiter-Glo reagent (Promega G7573) and reading plates on PerkinElmer Envision according to manufacturer's instructions. Raw data were loaded and analyzed in ActivityBase. Antiviral IC50 and cytotoxicity CC50 values were determined using a 4 parameter logistic fit based on the Levenberg-Marquardt algorithm. Model: 205-4 Parameter Logistic.

[1] = read-out: RSV EC50, Calu-1 cells, RSV-A2-GFP MOI=1.2, 96 hrs, GFP-expressing cells counted
[2] = VERO cells, hMPV-GFP MOI=1.25, 48 hrs, GFP-expressing cells counted
[3] = human respiratory syncytial virus, Calu-1, 96 h, read-out: RSV EC50, Calu-1 cells, RSV-A2-GFP MOI=1.2, 96 hrs, GFP-expressing cells counted
[4] = human metapneumovirus, Vero, 48 h

SMILES	EC50 (RSV-A2-GFP; [1])	EC50 (hMPV-GFP; [2])	EC50 (RSV-A2-GFP; [3])	EC50 (hMPV-GFP; [4])
Cc1nc(-c2ncccn2)sc1C(=O)NCC(O)(c1cc(C(C)(C)N)cc(-c2ccc(F)cc2)n1)C(F)(F)F (single isomer, unassigned) [Example 25-B]	> 100 nM	> 100 nM		
CCn1nc(-c2cscn2)cc1C(=O)NCC(C)(O)c1cc(C(C)(C)N)cc(-c2ccc(F)cc2)n1 (single isomer, unassigned) [Example 06-B]			< 10 nM	> 100 nM
Cn1nc(-c2cscn2)cc1C(=O)NCC(O)(c1cc(C(C)(C)N)cc(-c2ccc(F)cc2)n1)C(F)(F)F (single isomer, unassigned) [Example 26-A]			< 10 nM	> 100 nM
Cn1nc(-n2cccn2)cc1C(=O)NCC(C)(O)c1cc(C(C)(C)N)cc(-c2ccc(F)cc2)n1 (single isomer, unassigned) [Example 02-B]			< 10 nM	> 100 nM
Cn1nc(-c2cscn2)cc1C(=O)NCC(C)(O)c1cc(C(C)(C)N)cc(-c2ccc(F)c(F)c2F)n1 (single isomer, unassigned) [Example 20-B]			< 10 nM	> 100 nM
Cn1nc(-c2cscn2)cc1C(=O)NCC(C)(O)c1cc(C(C)(C)N)cc(-c2ccc(Cl)c(F)c2)n1 (single isomer, unassigned) [Example 17-B]			< 10 nM	> 100 nM
Cn1nc(-c2cscn2)cc1C(=O)NCC(C)(O)c1cc2c(c(-c3ccc(F)cc3)n1)OCC2(C)N (single isomer, unassigned) [Example 28-D]	10 to 100 nM	> 100 nM		
Cn1nc(-c2cscn2)cc1C(=O)NCC(C)(O)c1cc(C(C)(C)N)cc(-n2ccc3c(F)cccc32)n1 (single isomer, unassigned) [Example 12-B]			< 10 nM	> 100 nM
Cn1nc(-c2cscn2)cc1C(=O)NCC(C)(O)c1cc(C2(C)CCNC2)cc(-c2ccc(F)cc2)n1 (single isomer, unassigned) [Example 27-C]	< 10 nM	> 100 nM		
CCOc1cc(C(=O)NCC(C)(O)c2cc(C(C)(C)N)cc(-c3ccc(F)cc3)n2)n(C)n1 (single isomer, unassigned) [Example 01-A]	> 100 nM			> 100 nM
Cc1nc(-c2ncccn2)sc1C(=O)NCC(O)(c1cc(C(C)(C)N)cc(-c2ccc(F)cc2)n1)C(F)(F)F (single isomer, unassigned) [Example 25-A]	10 to 100 nM			> 100 nM
COc1nn(-c2ncccn2)cc1C(=O)NCC(C)(O)c1cc(C(C)(C)N)cc(-c2ccc(F)cc2)n1 (single isomer, unassigned) [Example 11-B]			< 10 nM	> 100 nM
CCC(O)(CNC(=O)c1cc(-c2cscn2)nn1C)c1cc(C(C)(C)N)cc(-c2ccc(F)cc2)n1 (single isomer, unassigned) [Example 21-B]	10 to 100 nM	> 100 nM		
Cc1nc(-c2ncccn2)sc1C(=O)NCC(O)(c1cc(C(C)(C)N)cc(-c2ccc(F)cc2)n1)C1CC1 (single isomer, unassigned) [Example 22-A]	> 100 nM			> 100 nM
Cn1nc(-c2cscn2)cc1C(=O)NCC(O)(c1cc(C(C)(C)N)cc(-c2ccc(F)cc2)n1)C(F)F (single isomer, unassigned) [Example 24-B]	10 to 100 nM	> 100 nM		
Cn1nc(-c2cscn2)cc1C(=O)NCC(O)(c1cc(C(C)(C)N)cc(-c2ccc(F)cc2)n1)C(F)F (single isomer, unassigned) [Example 24-A]			< 10 nM	> 100 nM
CC(C)(N)c1cc(-c2ccc(F)cc2)nc(C(C)(O)CNC(=O)c2cc(-c3ncccn3)ns2)c1 (single isomer, unassigned) [Example 10-B]			< 10 nM	> 100 nM
Cn1nc(-c2ncco2)cc1C(=O)NCC(C)(O)c1cc(C(C)(C)N)cc(-c2ccc(F)cc2)n1 (single isomer, unassigned) [Example 04-B]			< 10 nM	> 100 nM
CCC(O)(CNC(=O)c1cc(-c2cscn2)nn1C)c1cc(C(C)(C)N)cc(-c2ccc(F)cc2)n1 (single isomer, unassigned) [Example 21-A]			< 10 nM	> 100 nM
Cn1nc(-c2cscn2)cc1C(=O)NCC(O)(c1cc(C(C)(C)N)cc(-c2ccc(F)cc2)n1)C1CC1 (single isomer, unassigned) [Example 23-B]			< 10 nM	> 100 nM
Cn1nc(-c2cscn2)cc1C(=O)NCC(C)(O)c1cc(C2(C)CCNC2)cc(-c2ccc(F)cc2)n1 (single isomer, unassigned) [Example 27-D]	< 10 nM	> 100 nM		
Cn1nc(-c2cscn2)cc1C(=O)NCC(C)(O)c1cc(C(C)(C)N)cc(-c2ccc(F)cc2F)n1 (single isomer, unassigned) [Example 18-B]			< 10 nM	> 100 nM
Cn1nc(-c2cscn2)cc1C(=O)NCC(C)(O)c1cc(C(C)(C)N)cc(-c2ccc(F)cc2)n1 (single isomer, unassigned) [Example 05-B]			< 10 nM	> 100 nM
Cn1nc(-c2cscn2)cc1C(=O)NCC(C)(O)c1cc(C2(C)CCNC2)cc(-c2ccc(F)cc2)n1 (single isomer, unassigned) [Example 27-A]	> 100 nM			> 100 nM
Cn1nc(-c2cscn2)cc1C(=O)NCC(C)(O)c1cc2c(c(-c3ccc(F)cc3)n1)OCC2(C)N (single isomer, unassigned) [Example 28-B]	10 to 100 nM	> 100 nM		
Cc1ccc(-c2cc(C(C)(C)N)cc(C(C)(O)CNC(=O)c3cc(-c4cscn4)nn3C)n2)cc1 (single isomer, unassigned) [Example 14-B]			< 10 nM	> 100 nM

Source: patent US20250066323A1, “INHIBITORS OF HUMAN RESPIRATORY SYNCYTIAL VIRUS AND METAPNEUMOVIRUS” (priority 2023, published 2025)
